This note sets out measurements from DBAASP.

In brackets after ≈: the same amount, converted by molar mass. Several values for one entry are separate records, joined by “and”; a condition that tells them apart may be missing. Equal values may be shown once.

Among the test systems are Escherichia coli ML-35p; Saccharomyces cerevisiae; Bacillus cereus; Staphylococcus aureus; Micrococcus luteus; Escherichia coli; Leuconostoc lactis; Streptococcus uberis; Pasteurella multocida; Listeria innocua; Klebsiella aerogenes; Staphylococcus aureus MR; Candida albicans.
Holding throughout (test): ≥ marks a high value that may be exact or a test limit, other limits are often not marked, values filed in µg/mL are converted to µM
Experiment [1] deals with Staphylococcus aureus ATCC BAA-44.
Experiment [2] concerns Enterococcus faecalis ATCC 29212.
Experiment [3] has as its system Staphylococcus aureus NCTC 10788.
Experiment [4] deals with Streptococcus pyogenes ATCC 19615.
Experiment [5] has as its system Staphylococcus aureus ATCC 43300.
Experiment [6] has as its system Escherichia coli ATCC 25922.
Experiment [7] relates to Acinetobacter baumannii ATCC 19606.
The test system of experiment [8] is Escherichia coli NCTC 10418.
Experiment [9] has as its system Klebsiella pneumoniae ATCC 13883.
For experiment [10], the system named is Staphylococcus aureus ATCC 25923.
Experiment [11] has as its system Candida albicans NCPF 1467.
Experiment [12] has as its system Candida parapsilosis ATCC 22019.
Experiment [13] deals with Pseudomonas aeruginosa ATCC 27853.
Experiment [14] concerns Staphylococcus aureus ST1065.
The test system of experiment [15] is Staphylococcus aureus IFO 12732.
Experiment [16] deals with Escherichia coli IFO 12734.
Experiment [17] deals with Bacillus subtilis IFO 3513.
The subject of experiment [18] is Micrococcus luteus ATCC 9341.
The subject of experiment [19] is Staphylococcus epidermidis.
For experiment [20], the system named is Pseudomonas aeruginosa PAO1.
Experiment [21] deals with Staphylococcus aureus ATCC 49476.

What is called MIC is the lowest concentration that inhibits growth of the organism. The low end stands for inhibition by little substance, the high end for a need for much substance.

With `CC[C@H](C)[C@H](NC(=O)[C@H](CO)NC(=O)[C@H](C)NC(=O)[C@@H](NC(=O)CNC(=O)[C@H](CO)NC(=O)[C@@H](NC(=O)[C@@H](NC(=O)[C@H](Cc1cnc[nH]1)NC(=O)[C@@H]1CCCN1C(=O)[C@@H](NC(=O)[C@H](CC(C)C)NC(=O)[C@H](CO)NC(=O)[C@H](CC(C)C)NC(=O)[C@@H](N)Cc1ccccc1)[C@@H](C)CC)[C@@H](C)CC)C(C)C)C(C)C)C(=O)N[C@@H](C)C(=O)N[C@@H](CCCCN)C(=O)N[C@@H](Cc1cnc[nH]1)C(=O)N[C@@H](Cc1ccccc1)C(N)=O` [FLSLIPHIVSGVASIAKHF], the MIC in [1] is 6.25 µM (≈ 12.7 µg/mL); in experiment [2] it was 25 µM (≈ 50.9 µg/mL); in [3], 5 µM (≈ 10.2 µg/mL); with Escherichia coli ML-35p, no less than 100 µM; in experiment [4] it was 3.12 µM (≈ 6.35 µg/mL); against Saccharomyces cerevisiae, 12.5 µM (≈ 25.4 µg/mL). In addition, the MIC was 6.25 µM (≈ 12.7 µg/mL) in experiment [5]; 70 µM (≈ 142 µg/mL) in experiment [6]; 6.25 µM (≈ 12.7 µg/mL) in experiment [7]; no less than 80 µM in [8]; no less than 100 µM in [9]; 6.25 µM (≈ 12.7 µg/mL) in experiment [10]. Further, the MIC is no less than 100 µM in [11], no less than 100 µM in experiment [12], greater than 100 µM in experiment [13] and 6.25 µM (≈ 12.7 µg/mL) in experiment [14].
`CC[C@H](C)[C@H](N)C(=O)N[C@@H](CC(C)C)C(=O)N1CCC[C@H]1C(=O)N[C@@H](CC(C)C)C(=O)N[C@@H](CCCCN)C(=O)N[C@@H](CC(C)C)C(=O)N1CCC[C@H]1C(=O)N[C@@H](CC(C)C)C(=O)N[C@@H](CC(C)C)C(=O)N1CCC[C@H]1C(=O)N[C@@H](CC(C)C)C(=O)N[C@@H](CCCN=C(N)N)C(=O)N[C@@H](CCCN=C(N)N)C(N)=O` [ILPLKLPLLPLRR]: the MIC in experiment [15] is 2.03 µM (≈ 3.13 µg/mL); in [16], 16.2 µM (≈ 25 µg/mL); in experiment [17], 4.05 µM (≈ 6.25 µg/mL); in experiment [18], 25 µM (≈ 38.5 µg/mL).
Consider `CC[C@H](C)[C@H](NC(=O)[C@H](CC(C)C)NC(=O)[C@@H]1CCCN1C(=O)[C@H](Cc1c[nH]c2ccccc12)NC(=O)[C@H](CCCCN)NC(=O)[C@H](CCCCN)NC(=O)[C@@H]1CCCN1C(=O)[C@H](CCCCN)NC(=O)[C@H](CC(C)C)NC(=O)[C@@H]1CCCN1C(=O)[C@H](Cc1c[nH]c2ccccc12)NC(=O)[C@H](CCCN=C(N)N)NC(=O)[C@@H](N)CCCN=C(N)N)C(N)=O` [RRWPLKPKKWPLI], for which the figures for the MIC in experiment [15], in experiment [16] and in experiment [17] were 7.28 µM (≈ 12.5 µg/mL), 29.1 µM (≈ 50 µg/mL) and 7.28 µM (≈ 12.5 µg/mL), respectively.
For the compound `CC[C@H](C)[C@H](NC(=O)[C@H](CC(=O)O)NC(=O)[C@H](Cc1ccccc1)NC(=O)[C@H](CC(C)C)NC(=O)CN)C(=O)N[C@H](C(=O)N[C@@H](CCCCN)C(=O)N[C@@H](CCCCN)C(=O)N[C@H](C(=O)N[C@H](C(=O)NCC(=O)N[C@H](C(=O)N[C@H](C(=O)N[C@@H](C)C(=O)NCC(=O)N[C@@H](CC(C)C)C(N)=O)[C@@H](C)CC)[C@@H](C)O)C(C)C)C(C)C)C(C)C` [GLFDIVKKVVGTIAGL], the MIC against Bacillus cereus is 15.3 µM (≈ 25 µg/mL); with Staphylococcus aureus, 15.3 µM (≈ 25 µg/mL); against Micrococcus luteus, 15.3 µM (≈ 25 µg/mL); in the experiment on Escherichia coli it was greater than 61.4 µM; against Leuconostoc lactis it was 7.36 µM (≈ 12 µg/mL); in the experiment on Streptococcus uberis, 15.3 µM (≈ 25 µg/mL). Further, the minimum inhibitory concentration (MIC) in the experiment with Pasteurella multocida was no less than 61.4 µM; against Listeria innocua, no less than 61.4 µM; in [19], 15.3 µM (≈ 25 µg/mL).
`CC(C)C[C@H](NC(=O)[C@H](CCCCN)NC(=O)[C@H](CCCCN)NC(=O)[C@H](Cc1ccccc1)NC(=O)[C@H](Cc1ccccc1)NC(=O)[C@H](CCCCN)NC(=O)[C@H](CCCCN)NC(=O)[C@H](Cc1ccccc1)NC(=O)[C@H](CCCN=C(N)N)NC(=O)[C@@H](N)CCCCN)C(=O)N[C@@H](CCCCN)C(=O)N[C@@H](CC(N)=O)C(=O)N[C@@H](CO)C(=O)N[C@H](C(=O)N[C@@H](CCCCN)C(=O)N[C@@H](CCCCN)C(=O)N[C@@H](CCCN=C(N)N)C(=O)N[C@@H](C)C(=O)N[C@@H](CCCCN)C(=O)N[C@@H](CCCCN)C(=O)N[C@@H](Cc1ccccc1)C(=O)N[C@@H](Cc1ccccc1)C(=O)N[C@@H](CCCCN)C(=O)N[C@@H](CCCCN)C(=O)O)C(C)C` [KRFKKFFKKLKNSVKKRAKKFFKK]: the MIC is 7.77 µM and 3.56 µM in experiment [20]; 7.77 µM and 3.88 µM in the experiment on Klebsiella aerogenes.
`CC[C@H](C)[C@H](NC(=O)[C@H](CC(N)=O)NC(=O)[C@H](CCCCN)NC(=O)[C@@H](NC(=O)[C@@H](NC(=O)[C@H](CC(=O)O)NC(=O)[C@H](Cc1ccccc1)NC(=O)[C@H](CC(C)C)NC(=O)CN)[C@@H](C)CC)[C@@H](C)CC)C(=O)N[C@@H](Cc1ccccc1)C(=O)N[C@@H](CO)C(=O)NCC(=O)N[C@@H](CC(C)C)C(N)=O` [GLFDIIKNIFSGL]: the MIC was no less than 69.6 µM in the experiment on Bacillus cereus; 69.6 µM (≈ 99.9 µg/mL) with Staphylococcus aureus; no less than 69.6 µM with Micrococcus luteus; greater than 69.6 µM against Escherichia coli; 17.4 µM (≈ 25 µg/mL) in the experiment with Leuconostoc lactis; no less than 69.6 µM in the experiment with Streptococcus uberis. For the same compound, the minimal inhibitory concentration (MIC) (in the experiment with Pasteurella multocida; in the experiment on Listeria innocua; in experiment [19]) was no less than 69.6 µM each time.
In the case of `CC[C@H](C)[C@H](NC(=O)[C@H](Cc1cnc[nH]1)NC(=O)[C@H](CCCCN)NC(=O)CNC(=O)[C@@H](NC(=O)[C@H](CO)NC(=O)[C@H](Cc1ccccc1)NC(=O)[C@H](CC(C)C)NC(=O)CNC(=O)CNC(=O)[C@@H](NC(=O)[C@@H](NC(=O)[C@H](Cc1cnc[nH]1)NC(=O)[C@H](Cc1cnc[nH]1)NC(=O)[C@@H](NC(=O)[C@@H](N)Cc1ccccc1)[C@@H](C)CC)[C@@H](C)CC)[C@@H](C)CC)C(C)C)C(=O)N[C@@H](Cc1cnc[nH]1)C(=O)N[C@@H](CO)C(=O)N[C@@H](CC(C)C)C(=O)N[C@H](C(=O)N[C@@H](Cc1cnc[nH]1)C(=O)N[C@@H](CCCN=C(N)N)C(=O)N[C@@H](CCCN=C(N)N)C(=O)N[C@@H](CCCN=C(N)N)C(=O)N[C@@H](CCCN=C(N)N)C(=O)O)[C@@H](C)CC` [FIHHIIGGLFSVGKHIHSLIHRRRR], the MIC in [21] is 5.36 µM (≈ 16 µg/mL); against Staphylococcus aureus MR, 5.36 µM (≈ 16 µg/mL); in [13], greater than 171 µM; in the experiment with Candida albicans, 42.8 µM (≈ 128 µg/mL).
